The text below walks through data of ChEMBL document CHEMBL5579839, “Discovery of new cyclopropane sulfonamide derivatives as EGFR inhibitors to overcome C797S-mediated resistance and EGFR double mutation” (Eur J Med Chem, 2024).

SMILES strings stand for the structures. pIC50: −log10 of the molar value.

The test system of series [1] is BaF3. The experiment in a line: Antiproliferative activity against mouse BaF3 cells harboring EGFR C797S/Del19/T790M mutant. Type of series: functional, cell-based.
In series [2] the test system is BaF3. Description: Antiproliferative activity against mouse BaF3 cells harboring EGFR C797S/L858R/T790M mutant. Type of series: functional, cell-based.
A short description of series [3]: Cytotoxicity against human HaCaT cells. Type of series: toxicity, cell-based.
Series [4] in a line: Cytotoxicity against human L02 cells. Type of series: toxicity, cell-based.
Series [5] can be described thus: Cytotoxicity against human HUVEC cells. Type of series: toxicity, cell-based.
A short description of series [6]: Cytotoxicity against human HK-2 cells. Type of series: toxicity, cell-based.
The nature of series [7]: Cytotoxicity against VEGF-stimulated human HUVEC cells. Type of series: toxicity, cell-based.
Series [8] deals with BaF3. Description: Inhibition of cell growth in mouse BaF3 cells harboring EGFR del19/T790M/C797S mutant. Type of series: functional, cell-based.
Series [9] concerns BaF3. Description: Inhibition of cell growth in mouse BaF3 cells harboring EGFR L858R/T790M/C797S mutant. Type of series: functional, cell-based.
The test system of series [10] is BaF3. Description: Inhibition of cell proliferation in mouse BaF3 cells harboring EGFR L858R/T790M mutant incubated for 72 hrs by MTS assay. Type of series: functional, cell-based. Particulars: BaF3, 72 h.
Series [11] addresses Epidermal growth factor receptor (Homo sapiens, UniProt P00533, C797S/EX19DEL/T790M). Description: Inhibition of EGFR C797S/T790M/Del19 mutant (unknown origin).
Series [12] has as its target Epidermal growth factor receptor (Homo sapiens, UniProt P00533, L858R/T790M). Description: Inhibition of EGFR T790M/L858R mutant (unknown origin).
Series [13] deals with Epidermal growth factor receptor (Homo sapiens, UniProt P00533). The experiment in a line: Inhibition of wild-type EGFR (unknown origin).
Series [14] concerns the target Epidermal growth factor receptor (Homo sapiens, UniProt P00533, C797S/L858R/T790M). The experiment in a line: Inhibition of EGFR C797S/T790M/L858R mutant (unknown origin).
Series [15] relates to BaF3. Description: Inhibition of cell growth in mouse BaF3 cells harboring EGFR del19/T790M/C797S mutant incubated for 72 hrs by fluorescence based assay. Type of series: functional. Particulars: BaF3, 72 h.
Series [16] in a line: Toxicity in nude mouse xenografted with human NCI-H1975 cells assessed as body weight loss at 25 mg/kg, po measured for 7 days. Particulars: in vivo, 168 h, time 7 day. Type of series: organism-based.

Epidermal growth factor receptor (Homo sapiens, UniProt P00533), sequence (P00533 whole entry): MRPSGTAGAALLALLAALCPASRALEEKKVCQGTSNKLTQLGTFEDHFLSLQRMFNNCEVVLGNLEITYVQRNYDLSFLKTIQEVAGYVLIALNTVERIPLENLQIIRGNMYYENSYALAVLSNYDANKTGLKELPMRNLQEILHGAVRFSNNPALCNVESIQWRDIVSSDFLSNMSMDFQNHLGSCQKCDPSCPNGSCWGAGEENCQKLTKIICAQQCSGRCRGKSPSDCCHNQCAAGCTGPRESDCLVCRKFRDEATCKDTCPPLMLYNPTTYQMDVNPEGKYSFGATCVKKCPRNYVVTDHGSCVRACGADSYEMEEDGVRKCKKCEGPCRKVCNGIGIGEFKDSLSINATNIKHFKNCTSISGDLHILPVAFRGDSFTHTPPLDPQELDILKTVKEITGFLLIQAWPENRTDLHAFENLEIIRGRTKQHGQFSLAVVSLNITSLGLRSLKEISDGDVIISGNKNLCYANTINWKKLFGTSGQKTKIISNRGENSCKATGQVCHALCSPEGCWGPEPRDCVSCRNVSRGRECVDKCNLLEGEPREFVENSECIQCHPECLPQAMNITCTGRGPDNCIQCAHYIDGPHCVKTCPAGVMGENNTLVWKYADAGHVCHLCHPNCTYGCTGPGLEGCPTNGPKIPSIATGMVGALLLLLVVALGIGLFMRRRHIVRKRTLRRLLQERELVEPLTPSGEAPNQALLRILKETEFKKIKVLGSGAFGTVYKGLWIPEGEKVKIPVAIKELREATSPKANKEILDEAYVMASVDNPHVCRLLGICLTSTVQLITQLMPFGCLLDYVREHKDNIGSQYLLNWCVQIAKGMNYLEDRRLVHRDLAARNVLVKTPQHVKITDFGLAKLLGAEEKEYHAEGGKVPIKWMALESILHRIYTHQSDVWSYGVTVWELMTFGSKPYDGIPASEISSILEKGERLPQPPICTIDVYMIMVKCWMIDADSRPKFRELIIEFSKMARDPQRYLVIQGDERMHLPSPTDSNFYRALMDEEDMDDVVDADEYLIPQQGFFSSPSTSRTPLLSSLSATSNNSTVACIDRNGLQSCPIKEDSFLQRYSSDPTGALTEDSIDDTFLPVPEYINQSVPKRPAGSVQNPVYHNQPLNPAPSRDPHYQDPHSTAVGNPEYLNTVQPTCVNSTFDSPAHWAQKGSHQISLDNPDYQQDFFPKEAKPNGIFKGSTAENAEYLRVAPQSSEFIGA
Epidermal growth factor receptor (Homo sapiens, UniProt P00533, C797S/EX19DEL/T790M), sequence (P00533 whole entry, looked up, stated change not applied): as the sequence (P00533 whole entry) above
Epidermal growth factor receptor (Homo sapiens, UniProt P00533, C797S/L858R/T790M), sequence (P00533 25-1210 T790M/C797S/L858R limits assumed): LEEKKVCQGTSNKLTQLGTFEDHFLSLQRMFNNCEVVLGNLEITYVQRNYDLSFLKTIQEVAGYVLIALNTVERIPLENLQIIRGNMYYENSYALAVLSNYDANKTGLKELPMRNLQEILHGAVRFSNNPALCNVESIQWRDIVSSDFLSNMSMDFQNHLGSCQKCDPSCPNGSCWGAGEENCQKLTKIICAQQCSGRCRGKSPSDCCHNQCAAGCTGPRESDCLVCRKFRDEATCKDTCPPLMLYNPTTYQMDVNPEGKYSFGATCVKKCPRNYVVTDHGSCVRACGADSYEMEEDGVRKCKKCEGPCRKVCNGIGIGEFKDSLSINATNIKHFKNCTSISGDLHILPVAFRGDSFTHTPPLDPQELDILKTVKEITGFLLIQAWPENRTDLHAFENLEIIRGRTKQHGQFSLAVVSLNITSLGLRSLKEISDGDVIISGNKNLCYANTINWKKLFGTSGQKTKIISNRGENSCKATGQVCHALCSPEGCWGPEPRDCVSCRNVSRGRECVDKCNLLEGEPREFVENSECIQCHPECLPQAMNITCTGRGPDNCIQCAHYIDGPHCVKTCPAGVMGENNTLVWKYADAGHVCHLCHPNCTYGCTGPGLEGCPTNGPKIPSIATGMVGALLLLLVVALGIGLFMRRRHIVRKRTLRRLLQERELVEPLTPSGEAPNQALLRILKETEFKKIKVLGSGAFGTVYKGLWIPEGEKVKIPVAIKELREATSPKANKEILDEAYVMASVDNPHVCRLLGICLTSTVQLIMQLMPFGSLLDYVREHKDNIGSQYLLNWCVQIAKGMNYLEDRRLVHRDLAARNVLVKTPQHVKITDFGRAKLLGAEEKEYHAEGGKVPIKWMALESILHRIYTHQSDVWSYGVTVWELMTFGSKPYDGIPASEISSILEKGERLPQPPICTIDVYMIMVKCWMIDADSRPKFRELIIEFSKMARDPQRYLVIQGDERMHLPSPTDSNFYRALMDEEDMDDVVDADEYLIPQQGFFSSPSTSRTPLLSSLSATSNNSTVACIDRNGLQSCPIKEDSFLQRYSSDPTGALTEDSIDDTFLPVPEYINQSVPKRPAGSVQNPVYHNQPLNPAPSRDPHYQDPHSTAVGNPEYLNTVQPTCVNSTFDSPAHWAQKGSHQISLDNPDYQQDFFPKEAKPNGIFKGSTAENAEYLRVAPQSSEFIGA
Epidermal growth factor receptor (Homo sapiens, UniProt P00533, L858R/T790M), sequence (P00533 25-1210 T790M/L858R limits assumed): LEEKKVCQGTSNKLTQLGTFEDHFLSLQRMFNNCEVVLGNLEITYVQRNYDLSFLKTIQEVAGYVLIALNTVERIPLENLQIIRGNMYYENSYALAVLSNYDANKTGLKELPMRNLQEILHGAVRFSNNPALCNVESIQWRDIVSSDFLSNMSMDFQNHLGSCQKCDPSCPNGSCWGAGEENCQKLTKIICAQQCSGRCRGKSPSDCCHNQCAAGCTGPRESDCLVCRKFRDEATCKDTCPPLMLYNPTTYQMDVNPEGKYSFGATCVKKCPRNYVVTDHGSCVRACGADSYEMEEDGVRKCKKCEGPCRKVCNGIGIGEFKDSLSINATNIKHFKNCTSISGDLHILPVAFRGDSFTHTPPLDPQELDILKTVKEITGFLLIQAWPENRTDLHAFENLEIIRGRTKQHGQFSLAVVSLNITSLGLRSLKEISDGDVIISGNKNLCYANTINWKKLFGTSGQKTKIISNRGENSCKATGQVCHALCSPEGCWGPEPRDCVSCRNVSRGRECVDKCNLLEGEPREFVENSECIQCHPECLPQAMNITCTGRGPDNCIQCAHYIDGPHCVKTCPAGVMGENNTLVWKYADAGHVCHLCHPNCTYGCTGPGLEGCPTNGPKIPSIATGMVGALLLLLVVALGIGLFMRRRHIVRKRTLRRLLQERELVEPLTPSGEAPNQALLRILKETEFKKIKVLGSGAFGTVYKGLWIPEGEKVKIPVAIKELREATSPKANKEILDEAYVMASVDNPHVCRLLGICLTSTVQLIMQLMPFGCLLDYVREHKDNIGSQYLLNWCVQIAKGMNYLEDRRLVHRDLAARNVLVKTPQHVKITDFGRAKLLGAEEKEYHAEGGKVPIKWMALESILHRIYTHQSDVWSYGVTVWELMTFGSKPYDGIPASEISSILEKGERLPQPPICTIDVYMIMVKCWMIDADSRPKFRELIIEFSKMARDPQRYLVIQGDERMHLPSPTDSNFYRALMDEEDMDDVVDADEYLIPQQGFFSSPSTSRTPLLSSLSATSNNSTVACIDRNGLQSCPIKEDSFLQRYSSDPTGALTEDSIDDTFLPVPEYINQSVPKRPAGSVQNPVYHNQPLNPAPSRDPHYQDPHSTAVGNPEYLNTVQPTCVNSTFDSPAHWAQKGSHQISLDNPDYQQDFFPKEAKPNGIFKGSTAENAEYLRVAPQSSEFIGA

In the case of `CN(C)C1CCN(c2ccc(Nc3ncc(Br)c(Nc4ccccc4NS(=O)(=O)C4CC4)n3)cc2NS(C)(=O)=O)CC1`, the negative logarithm of the IC50 (pIC50) in the series with BaF3 [1] and in the series with BaF3 [2] was 6.11 throughout.

With `Cn1ccc2ccc(Nc3ncc(Br)c(Nc4ccccc4NS(=O)(=O)C4CC4)n3)cc21`, the pIC50 (in general, the IC50 on a negative log10 scale, so that one unit is a factor of ten) in the series on BaF3 [1] is 6.57; in the series on BaF3 [2] it was 6.59.

Regarding `Cn1cnc2ccc(Nc3ncc(Br)c(Nc4ccccc4NS(=O)(=O)C4CC4)n3)cc21`, the pIC50 in the series on BaF3 [1] was 6.94; in the series with BaF3 [2], 6.99.

As for `CN1CCCN(c2ccc(Nc3ncc(Br)c(Nc4ccccc4NS(=O)(=O)C4CC4)n3)cc2NS(C)(=O)=O)CC1`, the pIC50 in the series on BaF3 [1] is 6.11; in the series with BaF3 [2], 6.10.

Regarding `CN(C)CCn1ccc2cccc(Nc3ncc(Cl)c(Nc4ccccc4NS(=O)(=O)C4CC4)n3)c21`, the pIC50 in the series on BaF3 [1] was 6.47; in the series with BaF3 [2], 6.45.

`COc1cc(N2CCCN(C)CC2)ccc1Nc1ncc(Br)c(Nc2ccccc2NS(=O)(=O)C2CC2)n1`: the negative-log IC50 (pIC50) in the series on BaF3 [1] is 7.19; in the series with BaF3 [2], 7.17.

For the molecule `COc1cc(N2CCC(N3CCN(C)CC3)CC2)ccc1Nc1ncc(Cl)c(Nc2ccccc2P(C)(C)=O)n1` [BRIGATINIB], the pIC50 in series [3] is 5.30; in [4], 5.85; in the series with BaF3 [1], 7.19; in series [5], 5.66; in series [6], 5.67; in the series with BaF3 [2], 7.15. Further, the pIC50 in series [7] is 5.62.

Regarding `CN(C)CCN(C)c1ccc(Nc2ncc(Br)c(Nc3ccccc3NS(=O)(=O)C3CC3)n2)cc1`, the pIC50 in the series with BaF3 [1] was 7.89; in the series with BaF3 [2], 7.82.

With `CN1CCN(c2ccc(Nc3ncc(Cl)c(Nc4ccccc4P(C)(C)=O)n3)cc2Br)CC1`, the results for the pIC50 with BaF3 [8] and in the series with BaF3 [9] were 8.62 and 8.51, respectively.

On to `O=C(Nc1nccs1)C(c1cc(F)ccc1O)N1Cc2ccccc2C1=O` (stereo unspecified), for which the pIC50 in the series on BaF3 [10] is about 8.00.

Consider `CN1CCCN(c2ccc(Nc3ncc(Cl)c(Nc4ccccc4NS(=O)(=O)C4CC4)n3)cc2)CC1`, for which the values for the pIC50 in the series on BaF3 [1] and in the series with BaF3 [2] were 8.10 and 8.00, respectively.

Consider `Cc1cc(Nc2ncc(Br)c(Nc3ccccc3NS(=O)(=O)C3CC3)n2)ccc1N1CCCN(C)CC1`, for which the pIC50 with BaF3 [1] was 9.00; in series [11] it was 9.52; in series [12], 7.99; in [13] it was 7.21; in series [14], 9.55; in the series on BaF3 [2], 9.00.

On to `O=S(=O)(Nc1ccccc1Nc1nc(Nc2cccc3[nH]cnc23)ncc1Cl)C1CC1`, for which the negative logarithm of the IC50 (pIC50) in the series on BaF3 [1] was 6.72; in the series with BaF3 [2], 6.76.

Take `CCS(=O)(=O)Nc1cc(Nc2ncc(Cl)c(Nc3ccccc3NS(=O)(=O)C3CC3)n2)ccc1N1CCCN(C)CC1`: the negative-log IC50 (pIC50) is 6.17 in the series with BaF3 [1] and 6.16 in the series with BaF3 [2].

For `COc1cc(N2CCC(N(C)C)CC2)ccc1Nc1ncc(Cl)c(Nc2ccccc2NS(=O)(=O)C2CC2)n1`, the values for the pIC50 with BaF3 [1] and in the series with BaF3 [2] were 7.00 and 7.01, respectively.

Take `CN(C)C1CCN(c2ccc(Nc3ncc(Cl)c(Nc4ccccc4NS(=O)(=O)C4CC4)n3)cc2)CC1`: the results for the pIC50 with BaF3 [1] and in the series with BaF3 [2] were 7.96 and 7.82, respectively.

In the case of `O=S(=O)(Nc1ccccc1Nc1nc(Nc2cccc3[nH]ccc23)ncc1Cl)C1CC1`, the results for the negative-log IC50 (pIC50) in the series on BaF3 [1] and in the series with BaF3 [2] were 6.73 and 6.71, respectively.

As to `Cc1cc(Nc2ncc(Cl)c(Nc3ccccc3NS(=O)(=O)C3CC3)n2)ccc1N(C)CCN(C)C`, the results for the pIC50 in the series with BaF3 [1] and with BaF3 [2] were 7.66 and 7.54, respectively.

As to `CN(C)C1CCN(c2ccc(Nc3ncc(Cl)c(Nc4ccccc4NS(=O)(=O)C4CC4)n3)cc2NS(C)(=O)=O)CC1`, the pIC50 with BaF3 [1] is 6.10; with BaF3 [2], 6.07.

With `CN1CCCN(c2ccc(Nc3ncc(Cl)c(Nc4ccccc4NS(=O)(=O)C4CC4)n3)cc2NS(=O)(=O)C2CC2)CC1`, the values for the negative logarithm of the IC50 (pIC50) in the series with BaF3 [1] and in the series on BaF3 [2] were 6.39 and 6.38, respectively.

With `CCS(=O)(=O)Nc1cc(Nc2ncc(Br)c(Nc3ccccc3NS(=O)(=O)C3CC3)n2)ccc1N1CCC(N(C)C)CC1`, the pIC50 in the series with BaF3 [1] is 6.22; in the series on BaF3 [2] it was 6.21.

With `Cc1cc(Nc2ncc(Cl)c(Nc3ccccc3NS(=O)(=O)C3CC3)n2)ccc1N1CCCN(C)CC1`, the pIC50 is 8.10 in the series on BaF3 [1] and 8.40 in the series on BaF3 [2].

Take `Cc1cc(Nc2ncc(Cl)c(Nc3ccccc3NS(=O)(=O)C3CC3)n2)ccc1N1CCC(N(C)C)CC1`: the pIC50 with BaF3 [1] is 9.00; in series [11] it was 9.54; in series [12], 7.90; in series [13], 7.16; in [14] it was 9.43; with BaF3 [2], 8.70.

For the molecule `Cc1cc(Nc2ncc(Br)c(Nc3ccccc3NS(=O)(=O)C3CC3)n2)ccc1N(C)CCN(C)C`, the pIC50 with BaF3 [1] is 7.82; in the series on BaF3 [2], 7.77.

With `CN(C)C1CCN(c2ccc(Nc3ncc(Br)c(Nc4ccccc4NS(=O)(=O)C4CC4)n3)cc2)CC1`, the pIC50 in the series with BaF3 [1] and in the series with BaF3 [2] was 8.40 throughout.

Take `COc1cc(N2CCC(N(C)C)CC2)ccc1Nc1ncc(Br)c(Nc2ccccc2NS(=O)(=O)C2CC2)n1`: the pIC50 with BaF3 [1] is 7.12; with BaF3 [2], 7.10.

Regarding `Cn1ccc2c(Nc3ncc(Cl)c(Nc4ccccc4NS(=O)(=O)C4CC4)n3)cccc21`, the pIC50 with BaF3 [1] was 6.70; with BaF3 [2], 6.68.

For the molecule `CCS(=O)(=O)Nc1cc(Nc2ncc(Br)c(Nc3ccccc3NS(=O)(=O)C3CC3)n2)ccc1N1CCCN(C)CC1`, the pIC50 in the series with BaF3 [1] and in the series on BaF3 [2] was 6.20 in each case.

As to `COc1cc(N2CCCN(C)CC2)ccc1Nc1ncc(Cl)c(Nc2ccccc2NS(=O)(=O)C2CC2)n1`, the pIC50 was 7.10 in the series on BaF3 [1] and 7.09 in the series on BaF3 [2].

The molecule `COc1cc(N2CCC(N3CCN(C)CC3)CC2)ccc1Nc1ncc(Cl)c(Nc2ccccc2NS(C)(=O)=O)n1` gave a pIC50 in the series on BaF3 [15] of 7.57.

Consider `CN(C)CCN(C)c1ccc(Nc2ncc(Cl)c(Nc3ccccc3NS(=O)(=O)C3CC3)n2)cc1`, for which the pIC50 in the series on BaF3 [1] was 7.62; in the series with BaF3 [2] it was 7.55.

With `Cc1cc(Nc2ncc(Br)c(Nc3ccccc3NS(=O)(=O)C3CC3)n2)ccc1N1CCC(N(C)C)CC1`, the pIC50 is 8.40 with BaF3 [1] and 8.52 in the series with BaF3 [2].

Regarding `Cn1cnc2ccc(Nc3ncc(Cl)c(Nc4ccccc4NS(=O)(=O)C4CC4)n3)cc21`, the values for the pIC50 with BaF3 [1] and with BaF3 [2] were 6.70 and 6.73, respectively.

Take `O=S(=O)(Nc1ccccc1Nc1nc(Nc2cccc3[nH]ccc23)ncc1Br)C1CC1`: the pIC50 in the series on BaF3 [1] is 6.80; in the series on BaF3 [2], 6.91.

As for `CN(C)C1CCN(c2ccc(Nc3ncc(Br)c(Nc4ccccc4NS(=O)(=O)C4CC4)n3)cc2NS(=O)(=O)C2CC2)CC1`, the pIC50 was 6.39 with BaF3 [1] and 6.40 in the series on BaF3 [2].

Consider `Cn1ccc2c(Nc3ncc(Br)c(Nc4ccccc4NS(=O)(=O)C4CC4)n3)cccc21`, for which the negative logarithm of the IC50 (pIC50) with BaF3 [1] was 6.75; in the series on BaF3 [2] it was 6.74.

Take `Cn1ccc2ccc(Nc3ncc(Cl)c(Nc4ccccc4NS(=O)(=O)C4CC4)n3)cc21`: the negative-log IC50 (pIC50) with BaF3 [1] is 6.56; with BaF3 [2], 6.55.

For `CN(C)CCn1ccc2cccc(Nc3ncc(Br)c(Nc4ccccc4NS(=O)(=O)C4CC4)n3)c21`, the results for the pIC50 with BaF3 [1] and in the series with BaF3 [2] were 6.41 and 6.49, respectively.

Turning to `CN1CCCN(c2ccc(Nc3ncc(Br)c(Nc4ccccc4NS(=O)(=O)C4CC4)n3)cc2NS(=O)(=O)C2CC2)CC1`, the negative logarithm of the IC50 (pIC50) with BaF3 [1] was 6.45; with BaF3 [2] it was 6.42.

For the molecule `C=CC(=O)Nc1cc(Nc2nccc(-c3cn(C)c4ccccc34)n2)c(OC)cc1N(C)CCN(C)C` [OSIMERTINIB], the negative-log IC50 (pIC50) was 5.47 in series [3], 5.62 in [5], 5.67 in [6] and 5.62 in series [7]. Besides, in series [16], the Activity entry is “Toxic”.

For the molecule `CN1CCCN(c2ccc(Nc3ncc(Cl)c(Nc4ccccc4NS(=O)(=O)C4CC4)n3)cc2NS(C)(=O)=O)CC1`, the pIC50 was 6.15 in the series on BaF3 [1] and 6.14 in the series with BaF3 [2].
